Laboratory results taken from patent publication US20070104799A1, “Treatment of chronic kidney disease (CKD) subjects using lanthanum compounds” (SHIRE INT[…] B.V., priority 2005, published 2007).
Like-named read-outs stand apart in the source and are kept apart here.

Test system: Crl:CD (SD) Br (VAFplus) female rats with spontaneous renal pathology, including mineralization
Conditions: 104 weeks; for rats with evidence of pelvic/papillary mineralization / rats with evidence of transitional cell hyperplasia in kidneys: n=60; for rats with evidence of pelvic/papillary mineralization: undosed rats approx. 50% (n=120); for rats with evidence of transitional cell hyperplasia in kidneys: undosed rats approx. 63% (n=120)
Method: Crl:CD (SD) Br (VAFplus) female rats (available from Charles River Laboratories in Wilmington, Mass.) were orally dosed once daily with 0, 100, 500, or 1500 mg (salt)/kg of lanthanum carbonate for 104 weeks. Crl:CD (SD) Br (VAFplus) female rats develop spontaneous renal pathology, including mineralization, as they age. At week 105, the pathological examination of the kidneys of these rats was performed.
Transitional cell hyperplasia is a response to trauma caused by the unnatural presence of mineral in the tissue, thus mineralization and hyperplasia are closely linked.

## O=C([O-])[O-].O=C([O-])[O-].O=C([O-])[O-].[La+3].[La+3] [lanthanum carbonate]
100 mg (salt)/kg/day oral
  rats with evidence of pelvic/papillary mineralization: ~35%
  rats with evidence of transitional cell hyperplasia in kidneys: ~48%
500 mg (salt)/kg/day oral
  rats with evidence of pelvic/papillary mineralization: ~5%
  rats with evidence of transitional cell hyperplasia in kidneys: ~23%
1500 mg (salt)/kg/day oral
  rats with evidence of pelvic/papillary mineralization: ~1.7%
  rats with evidence of transitional cell hyperplasia in kidneys: ~7%
Oral administration, 100-1500 mg (salt)/kg/day
  effect on renal calcification (study conclusion): reduces renal calcification
